Test results as given in US10870638B2, “Pyridazinone compound or its salt, and herbicide containing it” (ISHIHARA SANGYO KAISHA, LTD., priority 2016, dated 2020).

What was measured:
Assay in all cases: Test Example 1: foliar treatment, growth inhibition rate on 14th day
Type in all cases: in vivo
Conditions in all cases: active ingredient amount 31 g/ha, 14th day after application
[1] = system: barnyardgrass (Echinochloa crus-qalli L.)
In short: (§1)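 Using a small sprayer, formulated compound in water (0.1 vol % surfactant, 1,000 L/ha) was applied to seedlings grown from seed in upland soil. Fourteen days on, growth state was observed and expressed as percent inhibition from 0 to 100.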

corn (Zea mays L.) = system: corn (Zea mays L.)
In short: as §1

[2] = system: crabgrass (Digitaria sanquinalis L.)
In short: as §1

[3] = system: green foxtail (Setaria viridis L.)
In short: (§2)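 Compounds applied once to leaves of pot-grown plants; wild oat at 0.4–1.2 leaf, foxtail 0.5–3.2, rice 0.2–2.7, soybean primary leaf. Inhibition estimated by eye on day 14.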

[4] = system: italian ryegrass (Lolium multiflorum Lam.)
In short: as §1

[5] = system: redroot pigweed (Amaranthus retroflexus L.)
In short: as §1

rice (Oryza sativa L.) = system: rice (Oryza sativa L.)
In short: as §2

[6] = system: soybean (Glycine max Merr.)
In short: as §2

[7] = system: wheat (Triticum aestivum L.)
In short: as §1

[8] = system: wild oat (Avena fatua L.)
In short: as §2

[9] = visual, 0 = non-treated, 100 = complete kill

SMILES | Growth inhibition rate (%) Barnyardgrass [1] [%] | Growth inhibition rate (%) Corn (corn (Zea mays L.)) [%] | Growth inhibition rate (%) Crabgrass [2] [%] | Growth inhibition rate (%) Green foxtail [3] [%] | Growth inhibition rate (%) Italian ryegrass [4] [%] | Growth inhibition rate (%) Redroot pigweed [5] [%] | Growth inhibition rate (%) Rice (rice (Oryza sativa L.)) [%] | Growth inhibition rate (%) Soybean [6] [%] | Growth inhibition rate (%) Wheat [7] [%] | Growth inhibition rate (%) Wild oat [8] [%] | Growth inhibition rate (%) Barnyardgrass [1, 9] [%] | Growth inhibition rate (%) Corn (corn (Zea mays L.); [9]) [%] | Growth inhibition rate (%) Crabgrass [2, 9] [%] | Growth inhibition rate (%) Green foxtail [3, 9] [%] | Growth inhibition rate (%) Italian ryegrass [4, 9] [%] | Growth inhibition rate (%) Redroot pigweed [5, 9] [%] | Growth inhibition rate (%) Rice (rice (Oryza sativa L.); [9]) [%] | Growth inhibition rate (%) Soybean [6, 9] [%] | Growth inhibition rate (%) Wheat [7, 9] [%] | Growth inhibition rate (%) Wild oat [8, 9] [%]
Cc1ccc(Oc2nc3ccccc3o2)cc1-c1c(O)c(C)nn(C)c1=O [Compound 2-104] | 85 | 10 | 60 | 70 | 30 | 10 | 10 | 10 | 20 | 35 | – | – | – | – | – | – | – | – | – | –
CCCCC(=O)Oc1c(C)nn(C)c(=O)c1-c1cc(Oc2cnc3cc(Cl)ccc3n2)ccc1C [Compound 3-36] | 100 | 40 | 99 | 99 | 99 | 0 | 90 | 40 | 99 | 99 | – | – | – | – | – | – | – | – | – | –
Cc1ccc(Oc2ncc(C(F)(F)F)cc2Cl)cc1-c1c(OC(=O)c2nn(C)cc2C)c(C)nn(C)c1=O [1-136] | 100 | 99 | 98 | 100 | 98 | 0 | 25 | 0 | 90 | 98 | – | – | – | – | – | – | – | – | – | –
Cc1ccc(Oc2cnc3cc(Cl)ccc3n2)cc1-c1c(OC(=O)N2CCOCC2)c(C)nn(C)c1=O [Compound 3-39] | 88 | 15 | 0 | 95 | 0 | 0 | 0 | 0 | 0 | 0 | – | – | – | – | – | – | – | – | – | –
Cc1ccc(Oc2ccc3cc(Br)ccc3n2)cc1-c1c(O)c(C)nn(C)c1=O [Compound 2-94] | 100 | 0 | 0 | 100 | 20 | 0 | 0 | 0 | 0 | 40 | – | – | – | – | – | – | – | – | – | –
Cc1ccc(Oc2cnc3cc(Cl)ccc3n2)cc1-c1c(OC(=O)C2CC2)c(C)nn(C)c1=O [Compound 3-37] | 100 | 45 | 99 | 100 | 99 | 10 | 95 | 30 | 99 | 98 | – | – | – | – | – | – | – | – | – | –
Cc1ccc(Oc2ncc3cc(Br)ccc3n2)cc1-c1c(O)c(C)nn(C)c1=O [Compound 2-90] | 90 | 0 | 0 | 75 | 10 | 0 | 0 | 0 | 20 | 0 | – | – | – | – | – | – | – | – | – | –
COC(=O)OC(C)Oc1c(C)nn(C)c(=O)c1-c1cc(Oc2ncc(C(F)(F)F)cc2Cl)c(C)cc1C (centres unmarked) [1-151] | 99 | 35 | 99 | 95 | 83 | 30 | 65 | 0 | 10 | 95 | – | – | – | – | – | – | – | – | – | –
Cc1ccc(Oc2ncc(Cl)cc2C(F)(F)F)cc1-c1c(O)c(C)nn(C)c1=O [Compound 2-92] | 80 | 80 | 30 | 10 | 78 | 20 | 0 | 0 | 0 | 50 | – | – | – | – | – | – | – | – | – | –
COCCOCOc1c(C)nn(C)c(=O)c1-c1cc(Oc2ncc(C(F)(F)F)cc2Cl)ccc1C [1-134] | 98 | 93 | 99 | 100 | 98 | 0 | 88 | 0 | 98 | 99 | – | – | – | – | – | – | – | – | – | –
CC(=O)Oc1c(C)nn(C)c(=O)c1-c1cc(Oc2ncc(Cl)cn2)ccc1C [Compound 2-124] | 85 | 0 | 80 | 80 | 0 | 30 | 0 | 0 | 0 | 0 | – | – | – | – | – | – | – | – | – | –
Cc1ccc(Oc2cnc3cc(Cl)ccc3n2)cc1-c1c(OS(=O)(=O)C2CC2)c(C)nn(C)c1=O [Compound 3-70] | – | – | – | – | – | – | – | – | – | – | 98 | 30 | 88 | 98 | 40 | 0 | 0 | 10 | 0 | 60
Cc1ccc(Oc2nc3cccc(Cl)c3o2)cc1-c1c(O)cnn(C)c1=O [Compound 2-185] | 93 | 10 | 85 | 88 | 0 | 0 | 0 | 20 | 0 | 0 | – | – | – | – | – | – | – | – | – | –
COc1ccc2nc(Oc3ccc(C)c(-c4c(OC(C)=O)c(C)nn(C)c4=O)c3)sc2c1 [Compound 2-154] | 80 | 0 | 10 | 60 | 10 | 0 | 0 | 10 | 0 | 0 | – | – | – | – | – | – | – | – | – | –
